The values below come from patent US20250084078A1, “FUSED RING-SUBSTITUTED SIX-MEMBERED HETEROCYCLIC COMPOUND, AND PREPARATION METHOD THEREFOR AND USE THEREOF” (GENFLEFT THERAPEUTICS (SHANGHAI) INC., priority 2022, published 2025).

Usually IC50 stands for the point on the concentration scale where inhibition reaches its midpoint. Low values mean greater potency, high ones weaker potency.

In assay [1] the target is T1, HPK1 (Homo sapiens, UniProt Q92918).
T1 sequence (Q92918 1-346): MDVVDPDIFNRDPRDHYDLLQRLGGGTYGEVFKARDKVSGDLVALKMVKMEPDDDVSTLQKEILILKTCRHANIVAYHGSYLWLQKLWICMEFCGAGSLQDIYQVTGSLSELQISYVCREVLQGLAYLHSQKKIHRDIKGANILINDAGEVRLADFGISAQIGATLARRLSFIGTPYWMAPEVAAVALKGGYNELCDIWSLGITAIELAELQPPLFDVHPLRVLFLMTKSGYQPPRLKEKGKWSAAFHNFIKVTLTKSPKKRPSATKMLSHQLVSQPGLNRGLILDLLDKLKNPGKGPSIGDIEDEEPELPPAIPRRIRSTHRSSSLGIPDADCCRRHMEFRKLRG
In words: HPK1 kinase activity assay (ADP-Glo). As to conditions: HPK1 Kinase activity IC50, ADP-Glo; 1 nM HPK1, 10 μM ATP, 0.1 μg/μL MBP. Background: In ADP-Glo the light output rises with the ADP produced.
Procedure: Preparation of buffer: Ix reaction buffer (40 mM Tris-HCl, 20 mM MgCl2, 0.01% Brij35, 50 μM DTT, 0.1 mg/ml BSA) was prepared using sterile water, which was prepared and used on the day of the experiment.
(§1) Preparation of 1000× drug stock plate: a 1000× compound stock plate was prepared. […] The compound stock plate was sealed with a sealing film and stored in a −20° C. refrigerator for later use.
Compound preparation and dosing: the 1000× drug stock plate was taken and melted at room temperature in the dark. Then 5× drug intermediate plate was prepared using reaction buffer and mixed well. 2 μL was transferred from the 5× drug intermediate plate into a 384-well plate, and negative control well and positive control well (in which 2 μL reaction buffer containing 0.5% DMSO was added) were set. Each point was repeated twice.
Preparation and incubation of reaction mixture: HPK1 protein was diluted to a 2.5× working solution with reaction buffer. 4 μL 2.5×HPK1 protein was added to each well containing test compound and positive control well, and 4 μL of reaction buffer without HPK1 protein was added to the negative control well. The obtained mixture was centrifuged at 1000 rpm for 1 min and then incubated in a 20° C. incubator for 15 min. A 2.5× mixed working solution of MBP protein and ATP was prepared with reaction buffer at concentrations of 0.5 μg/μL and 50 μM, respectively. 4 μL of the mixed working solution of MBP and ATP was added to each well, centrifuged at 1000 rpm for 1 min, and then incubated in a 20° C. incubator for 90 min.
ADP-Glo detection and reading plate: 10 μl ADP-Glo was added to each well of the test plate. The resulting mixture was centrifuged at 1000 rpm for 1 min and incubated in a 20° C. incubator for 60 min. Then 10 μL of the final incubation solution was transferred from the test plate to a new 384-well plate. 10 μL of kinase detection reagent was added to each well, centrifuged at 400 g for 1 min, and incubated in a 20° C. incubator for 60 min Chemiluminescent signals were read by a microplate reader.

For assay [2], the target named is HPK1 (Homo sapiens, UniProt Q92918). The experiment in a line: SLP76 phosphorylation assay (intracellular HPK1 inhibitory activity, p-SLP76 S376 ELISA in Jurkat cells). Conditions: p-SLP76 IC50, Jurkat, Clone E6-1 cells; 1 h compound pre-incubation; anti-CD3 beads stimulation 20 min; Phospho-SLP-76 (Ser376) ELISA. A general note: In an ELISA, binding on a coated surface is turned into a signal by an enzyme label.
Target sequence in this assay (Q92918 whole entry): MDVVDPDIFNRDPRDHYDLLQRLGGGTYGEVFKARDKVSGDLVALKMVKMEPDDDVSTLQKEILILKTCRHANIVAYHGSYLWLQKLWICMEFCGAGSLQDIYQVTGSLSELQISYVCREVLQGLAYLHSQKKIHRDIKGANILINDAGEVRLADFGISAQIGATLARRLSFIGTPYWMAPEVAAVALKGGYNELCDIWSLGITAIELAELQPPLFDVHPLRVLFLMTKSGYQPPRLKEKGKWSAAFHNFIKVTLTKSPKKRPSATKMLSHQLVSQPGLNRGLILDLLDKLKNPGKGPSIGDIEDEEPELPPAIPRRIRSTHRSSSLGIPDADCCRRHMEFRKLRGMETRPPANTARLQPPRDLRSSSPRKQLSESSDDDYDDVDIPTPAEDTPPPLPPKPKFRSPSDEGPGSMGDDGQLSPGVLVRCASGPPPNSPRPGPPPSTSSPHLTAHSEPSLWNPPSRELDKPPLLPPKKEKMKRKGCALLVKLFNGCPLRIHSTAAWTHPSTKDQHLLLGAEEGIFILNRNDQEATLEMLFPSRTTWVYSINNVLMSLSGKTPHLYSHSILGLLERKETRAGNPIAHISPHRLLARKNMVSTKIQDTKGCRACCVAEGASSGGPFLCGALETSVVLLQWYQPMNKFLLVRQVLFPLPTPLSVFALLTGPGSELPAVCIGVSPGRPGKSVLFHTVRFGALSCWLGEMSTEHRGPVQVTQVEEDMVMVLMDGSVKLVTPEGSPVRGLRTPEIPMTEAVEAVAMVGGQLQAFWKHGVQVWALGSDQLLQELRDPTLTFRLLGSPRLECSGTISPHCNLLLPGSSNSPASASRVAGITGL
Procedure: SLP76 Phosphorylation Assay
Intracellular HPK1 inhibitory activity was tested by the detection of SLP76 phosphorylation at S376.
as §1
Preparation of Beads wash buffer: 0.1 mL FBS and 0.4 mL 0.5 M EDTA (with a final concentration of 2 mM) were added to 100 mL PBS and stored in a 4° C. refrigerator for later use.
100× Protease Inhibitor Cocktail in 1/20 total volume was added and stored on wet ice for later use. The buffer was ready to use.
Cell inoculation and dosing: the 1000× drug stock plate was taken and melted at room temperature in the dark. […] Jurkat cells in the logarithmic growth phase were selected and collected. […] The cells were inoculated into a 96-well plate (the volume was 90 μL per well), and a blank control well (without cells inoculation, and in which 110 μL of medium was added) was set. 10 μL of a drug-containing culture medium (10×) was transferred from the 10× drug intermediate plate into the 96-well cell plate (with a final concentration of 0.1% DMSO), and set a DMSO control group (in which 0.1% DMSO was added to the treated cells), a stimulated control group (in which 10 μL of culture medium was added to treat cells) and an unstimulated group (in which 10 μL of culture medium was added to treat cells). The wells were duplicated, gently patted, mixed, and then placed into a 5% CO2 incubator at 37° C. for 1 h.
Anti-CD3 beads stimulation: Dynabeads anti-human CD3 was taken, shaken, and mixed for 60 s. The required volume of beads was pipetted, and an equal volume or at least 1 mL of washing solution was added to wash once. Fresh complete medium was then added to resuspend and adjust the density of the beads to 4×10^7/mL, and the beads were placed on ice for later use. At the end of drug pre-incubation, the cell culture plate was taken out. 10 μL Dynabeads anti-human CD3 was added to each well to treat the cells, and 10 μL the culture medium was added to the unstimulated group. The cell culture plate was shaken to mix well at 2500 rpm for 10 s, and then placed into a 5% CO2 incubator at 37° C. and continued to culture for 20 min.
Detection of p-SLP76 protein level: PathScan Phospho-SLP-76 (Ser376) Sandwich ELISA Kit was applied to detect p-SLP76 protein level. At the end of the Anti-CD3 beads stimulation, the cell culture plate was removed from the incubator. […] After lysis, the cell culture plate was centrifuged at 4° C., 400×g for 5 min. 25 μL of sample and 75 μL of sample diluent were added to each well, and the plate was placed in a 5% CO2 incubator at 37° C. for 2 h. The subsequent detection steps were carried out following the kit instructions, and the absorbance (OD value) of each well was read at 450 nm by a microplate reader.

For `Cc1c[nH]c2ncc(-c3cc4c(c([C@@H]5CCCN5)c3)CN(C(=O)N3CCOC(C(F)(F)F)C3)CC4)cc12` (stereo partly drawn) [Compound Z497, [6-(3-methyl-1H-pyrrolo[2,3-b]pyridin-5-yl)-8-[(S)-pyrrolidin-2-yl]-3,4-dihydro-isoquinolin-2(1H)-yl]-[2-(trifluoromethyl)morpholin-4-yl]methanone], the IC50 came out at 0.4 nM on HPK1 [1] and 186 nM on HPK1 [2].

As for `Cc1c[nH]c2ncc(-c3cc4c(c([C@@H]5COCCN5)c3)CN(C(=O)C(C)(C)O)CC4)nc12` [Compound Z507, (R)-1-(6-(7-methyl-5H-pyrrolo[2,3-b]pyrazin-2-yl)-8-(morpholin-3-yl)-3,4-dihydroisoquinolin-2(1H)-yl)-2-hydroxy-2-methylpropan-1-one], the concentration for half-maximal inhibition (IC50) on HPK1 [1] is 0.43 nM; at HPK1 [2], 119 nM.

Regarding `Cc1c[nH]c2ncc(-c3cc4c(c([C@@H]5COCCN5)c3)CN(C(=O)N3C[C@H](C)O[C@@H](C)C3)CC4)cc12` [Compound Z512, ((2S,6S)-2,6-dimethylmorpholine)(6-(3-methyl-1H-pyrrolo[2,3-b]pyridin-5-yl)-8-((R)-morpholin-3-yl)-3,4-dihydroisoquinolin-2-1H-yl)methanone], the IC50 against HPK1 [1] was found to be 0.35 nM; on HPK1 [2], 148 nM.

As to `Cc1c[nH]c2ncc(-c3cc4c(c([C@@H]5COCCN5)c3)CN(C(=O)N3C[C@H]5C[C@@H]3CO5)CC4)cc12` [Compound Z518], the IC50 against HPK1 [1] was 0.22 nM; at HPK1 [2], 130 nM.

Take `CC(C)(O)C(=O)N1CCc2cc(-c3cnc4[nH]cc(C5CC5)c4c3)cc([C@@H]3COCCN3)c2C1` [Compound Z523, (R)-1-(6-(3-cyclopropyl-1H-pyrrolo[2,3-b]pyridin-5-yl)-8-(morpholin-3-yl)-3,4-dihydroisoquinolin-2(1H)-yl)-2-hydroxy-2-methylpropan-1-one]: the figures for the half-inhibitory concentration (IC50) on HPK1 [1] and against HPK1 [2] were 0.17 nM and 51.8 nM, respectively.

Regarding `CCc1c[nH]c2ncc(-c3cc4c(c([C@@H]5COCCN5)c3)CN(C(=O)N3CCOCC3)CC4)nc12` [Compound Z528, (R)-(6-(7-ethyl-5H-pyrrolo[2,3-b]pyrazin-2-yl)-8-(morpholin-3-yl)-3,4-dihydroisoquinolin-2(1H)-yl)(morpholino)methanone], the 50% inhibitory concentration (IC50) is 0.16 nM on HPK1 [1] and 42.4 nM at HPK1 [2].

`CC(C)c1c[nH]c2ncc(-c3cc4c(c([C@@H]5COCCN5)c3)CN(C(=O)C(C)(C)O)CC4)nc12` [Compound Z541, (R)-2-hydroxy-1-(6-(7-isopropyl-5H-pyrrolo[2,3-b]pyrazin-2-yl)-8-(morpholin-3-yl)-3,4-dihydroisoquinolin-2(1H)-yl)-2-methylpropan-1-one]: the 50% inhibitory concentration (IC50) against HPK1 [1] is 0.16 nM; against HPK1 [2], 33.7 nM.

Take `O=C(N1CCc2cc(-c3cnc4[nH]cc(C(F)(F)F)c4c3)cc([C@@H]3COCCN3)c2C1)N1CC2CCC(C1)O2` [Compound Z544, (8-oxa-3-azabicyclo[3.2.1]octan-3-yl)(8-((R)-morpholin-3-yl)-6-(3-(trifluoromethyl)-1H-pyrrolo[2,3-b]pyridin-5-yl)-3,4-dihydroisoquinolin-2(1H)-yl)methanone]: the concentration for half-maximal inhibition (IC50) was found to be 0.12 nM against HPK1 [1] and 50.1 nM at HPK1 [2].

For the molecule `O=C(N1CCc2cc(-c3cnc4[nH]cc(Cl)c4n3)cc([C@@H]3COCCN3)c2C1)N1CC2CCC(C1)O2` [Compound Z549, (8-oxa-3-azabicyclo[3.2.1]octan-3-yl)(6-(7-chloro-5H-pyrrolo[2,3-b]pyrazin-2-yl)-8-((R)-morpholin-3-yl)-3,4-dihydroisoquinolin-2(1H)-yl)methanone], the concentration for half-maximal inhibition (IC50) against HPK1 [1] came to 0.11 nM; against HPK1 [2] it was 66.3 nM.

Turning to `Cc1c[nH]c2ncc(-c3cc4c(c([C@@H]5COCCN5)c3)CN(C(=O)N3C[C@@H](C)O[C@H](C)C3)CC4)cc12` [Compound Z552, ((2R,6R)-2,6-dimethylmorpholine)(6-(3-methyl-1H-pyrrolo[2,3-b]pyridin-5-yl)-8-((R)-morpholin-3-yl)-3,4-dihydroisoquinolin-2(1H)-yl)methanone], the concentration for half-maximal inhibition (IC50) against HPK1 [1] is 0.22 nM; on HPK1 [2], 105 nM.
